Source: US20050043262A1, “Novel specific inhibitor of the cyclin kinase inhibitor p21Waf1/Cip1 and methods of using the inhibitor” (priority 2000, published 2005)
In the oligonucleotide strings, read from the 5' end, every base follows the letter of its sugar. An asterisk marks phosphorothioate; unmarked linkages are phosphodiester. Other units and linkages are bracketed, terminal groups are in braces. A string of capitals states the bases alone. d = 2'-deoxy (DNA)

Legend:
Type in all cases: cell-based, human
[1] = test system: p21; assay: p21 level in MCF7 cells (immunoblot, immunohistochemistry); conditions: for p21 level by immunoblot: 200 or 400 nM, 24 hours after transfection
Method: (§1) Antisense Transfections: […] (Wilsonville, Oreg.). The human p21 antisense ODN sequence was [NT] ID NO.: 4). The randomly scrambled sequence of control ODN was [NT] ID NO.: 3), and the second control ODN (used for the experiment depicted in FIG. 34 was the sense human p21 sequence [NT] ID NO.: 5). For the transfection procedure, cells were grown to 70% confluence and washed with sterile PBS, and the ODNs (200 or 400 nM) were mixed with 6.6 μl Lipofectin/ml Opti-MEM media and added to the cells for 5 hours at 37° C. Serum-free media (without ODNs) were added overnight, the media were changed in the morning, and the cells were stimulated with serum or platelet-derived growth factor-BB as indicated. Immunoblotting: For FIGS. 27A and B, aliquots of each breast tumor (7) and corresponding normal (N) tissue were homogenized and subjected to immunoblotting with full-length p21 antibody and α-actin as a loading control. Density of p21 and actin bands was determined and reported as a ratio. HeLa cell nuclear extract was electrophoresed on the same gel as a positive control for p21 mobility. The samples of breast cancer tissues were cut into small pieces and rapidly homogenized in lysis buffer (1 ml/ mg) at 4° C. Cells from cell lines were grown to confluence in 60-mm culture dishes, and after incubation under appropriate conditions, the cells were washed with PBS and lysed in lysis buffer at 4° C. The tissue homogenates or cell lysates were centrifuged (13,000× g, 4° C., 10 min), and the supernatants were Western blotted as described previously (Weiss, […]., and Ramirez, A., Am. J. Physiol., 274: […]-[…], 1998). Densitometry was analyzed using NIH Image. […] Percentage of cytoplasmic and nuclear staining, intensity of staining (using a scale of 0 to 3+), and tumor grading using a modified Bloom-Richardson combined histological grade were determined by a breast pathologist. […] A and B, the cells were lysed, and equal protein quantities (20 μg) were electrophoresed and immunoblotted with p21 antibody. […] Density of p21 and MAPK bands was determined and reported as a ratio. […]

[2] = test system: T47D cells; assay: [3H]thymidine incorporation in T47D cells; conditions: 200 nM, serum 24 hours
Method: Cell Culture and DNA Synthesis: T47D (ductal carcinoma) and MCF7 (adenocarcinoma) human breast cancer cell lines were obtained from the American Type Culture Collection. All cell lines were maintained according to vendors' recommendations. The cells were growth arrested by placing them in serum-free quiescence media and exposed to 10% serum-containing media as indicated. [^3H]Thymidine incorporation was assessed as described previously (Weiss, R. H., and Nuccitelli, R., J. Biol. Chem., 267: 5608-5613, 1992).
Apoptotic cells will not incorporate thymidine into DNA during S phase, but [^3H]thymidine incorporation experiments will not distinguish between G1→S arrest and apoptosis. Serum-starved cells were transfected with 200 nM antisense p21 and control ODN, stimulated with serum-containing media, and examined for their ability to incorporate [^3H]thymidine into DNA. […] Antisense p21 attenuates [^3H]thymidine incorporation. MCF7 and T47D cells were grown to confluence, serum starved for 24 hours, and lipofected with antisense p21 (AS) or control (SC) ODN at the concentrations indicated (in nM). […] Serum was added for 24 hours, and the cells were incubated with [^3H]thymidine for the last 6 hours. DNA synthesis was assessed by [^3H]thymidine incorporation and is expressed as mean +SD of 3 wells/data point. *, P <0.05 compared with antisense p21 ODN transfection. […]

[3] = test system: p21; assay: p21 level in T47D cells (immunoblot, immunohistochemistry); conditions: for p21 level by immunoblot: 200 or 400 nM, 24 hours after transfection
Method: as §1

[4] = test system: cyclinE/cdk2; assay: Cyclin E immunoprecipitation / cdk2 immunoblot in A431 cells; conditions: 10 min to 6 hours of PDGF exposure
Description: Cyclin/cdk interactions occur after growth factor stimulation and serve to integrate such responses with the CKIs and transmit them to the Rb/E2F systems, which leads to mitogenic signal transmission. The cyclin D1/cdk 4 interaction occurs early after growth factor stimulation (reviewed in (Arellano and Moreno, 1997 Int. J. Biochem. Cell Biol., 29, p. 559-573)), while the cyclinE/cdk2 interaction occurs late in G1 and is thought to have a role in triggering the actual onset of DNA replication after the cells have passed the restriction point (reviewed in (Sherr and Roberts, 1995: Genes Dev., 9, p. 1149-1163)). A431 cells were transfected with p21^Waf1/Cip1 antisense (SEQ. ID NO.:1) or sense (SEQ. ID NO.:2) oligodeoxynucleotide, allowed to grow overnight in serum-free media, and then stimulated for various times with PDGF-BB. The cells were subsequently immunoprecipitated with either cyclinD1 or cyclinE and immunoblotted with cdk4 or cdk2, respectively. A lysate sample, showing the mobility of the immunoprecipitated cdks, confirmed the identity of the cdks. A431 cells were transfected with antisense (SEQ. ID NO.:1) or sense p21^Waf1/Cip1 (SEQ. ID NO.:2) oligonucleotides. […]

[5] = compared with random sequence ODN

5′-ATC-CCC-AGC-CGG-TTC-TGA-CAT-3′ (antisense ATCCCCAGCCGGTTCTGACAT; listed as DNA, chemistry not fully specified) [antisense p21 ODN]
p21 level by immunoblot [1]: marked, dose-dependent attenuation
p21 staining by immunohistochemistry [1, 5]: decreased p21 staining
[3H]thymidine incorporation (DNA incorporation) [2]: significant attenuation
p21 level by immunoblot [3]: marked, dose-dependent attenuation
p21 staining by immunohistochemistry [3, 5]: decreased p21 staining

5′-GACATCACCAGGATCGGACAT-3′
cyclinE/cdk2 association [4]: no effect

5′-TGG ATC CGA CAT GTC AGA-3′ (dT*dG*dG*dA*dT*dC*dC*dG*dA*dC*dA*dT*dG*dT*dC*dA*dG*dA) [random sequence control oligonucleotide, reference compound]
p21 level by immunoblot [1]: moderate decrease
p21 level by immunoblot [3]: inhibitory effect
